The values below come from patent publication US20090274674A1, “Heterocyclic Oxime Compounds, Process for Their Preparation and Pharmaceutical Compositions Containing Them” (LES LABORATOIRES SERVIER, priority 2005, published 2009).

As a reminder, the melting point is the temperature of the solid-liquid transition.

In one data set the test system is ob/ob mouse. Nature of the data set: Antidiabetic and hypolipaemic effect in the ob/ob mouse. It is filed as in vivo. The note with it: male ob/ob mouse, 3 mg/kg oral once per day for four days, measured 24 hours after the final administration. The source says: Mutations in laboratory animals and also different sensitivities to dietary regimens have allowed the development of animal models having non-insulin-dependent diabetes and hyperlipidaemia associated with obesity and with resistance to insulin. Genetic mice models (ob/ob) (Diabetes, 1982, 31 (1), 1-6) and Zucker (fa/fa) rats have been developed by various laboratories in order to understand the physiopathology of those diseases and test the effectiveness of new antidiabetic compounds (Diabetes, 1983, 32, 830-838).
Antidiabetic and Hypolipaemic Effect in the ob/ob Mouse
The 10-week-old male ob/ob mouse (Harlan) is used for the in vivo tests. The animals are kept in a light-darkness cycle of 12 hours at 25° C. This mouse has a basal hyperglycaemia of 2 g/l. The animals are randomly selected with regard to their glycaemia to form groups of eight. The compounds tested by the oral route are dissolved in a mixture of hydroxyethyl cellulose (HEC 1%) to be administered at 3 mg/kg in a volume of 10 ml/kg once per day for four days. The control group receives the solvents under the same conditions as the treated groups. The activity of the products is evaluated by measuring glycaemia, triglyceridaemia and insulinaemia 24 hours after the final administration and by measuring body weight daily.

Regarding `CCOC(Cc1ccc(OCCn2ccc3cc(C(=NOC)c4ccccc4)cnc32)cc1)C(=O)OC` (stereo not drawn) [Example 11, Methyl 2-ethoxy-3-[4-(2-{5-[(methoxyimino)(phenyl)methyl]-1H-pyrrolo[2,3-b]pyridin-1-yl}ethoxy)phenyl]propanoate], the melting point is 145 °C.

As for `CON=C(c1ccccc1)c1cnc2c(ccn2CCOc2ccc(CC(OCC(F)(F)F)C(=O)O)cc2)c1` (stereo not drawn) [Example 14, 3-[4-(2-{5-[(Methoxyimino)(phenyl)methyl]-1H-pyrrolo[2,3-b]pyridin-1-yl}ethoxy)phenyl]-2-(2,2,2-trifluoroethoxy)propanoic acid], the melting point is 182 °C (dec.).

For `CO/N=C(/c1ccccc1)c1cnc2c(ccn2CCOc2ccc(CC(OCC(F)(F)F)C(=O)O)cc2)c1Cl` (stereo not drawn) [Example 16, 3-[4-(2-{4-Chloro-5-[(Z)-(methoxyimino)(phenyl)methyl]-1H-pyrrolo[2,3-b]pyridin-1-yl}ethoxy)phenyl]-2-(2,2,2-trifluoro-ethoxy)propanoic acid], the melting point was 186 °C.

As to `CON=C(c1ccccc1)c1ccc2ccn(CCOc3ccc(C[C@H](OCC(F)(F)F)C(=O)O)cc3)c2n1` [Example 32, (2S)-3-[4-(2-{6-[(Methoxyimino) (phenyl)methyl]-1H-pyrrolo[2,3-b]pyridin-1-yl}ethoxy)phenyl]-2-(2,2,2-trifluoroethoxy)propanoic acid], in the data set on ob/ob mouse, the “reduction in glycaemia compared with the control” value was determined as 43%, the “reduction in insulinaemia compared with the control group” value is 23% and the “reduction in triglyceridaemia compared with the control group” value is on record as 37%.
